This is an account of results in US5679695A, “Aryl and heteroaryl compounds having anti-retrovirus activity” (The University of Connecticut, priority 1995, dated 1997).

Data set [1] has as its system CEM-V. As to the kind of experiment: XTT toxicity control, uninfected culture, CEM-V. Format: cell-based. Here is the method:
(§1) Another assay for testing the efficacy of the compounds is the procedure* used in the National Cancer Institute's test for agents active against Human Immunodeficiency Virus (HIV). It is designed to detect agents acting at any stage of the virus reproductive cycle. The assay basically involves the killing of T4 lymphocytes by HIV. Small amounts of HIV are added to cells, and a complete cycle of virus reproduction is necessary to obtain the required cell killing. Agents that interact with virions, cells, or virus gene-products to interfere with viral activities will protect cells from cytolysis. The system is automated in several features to accommodate large numbers of candidate agents and is generally designed to detect anti-HIV activity. However, compounds that degenerate, or are rapidly metabolized in the culture conditions may not show activity in this screen. All tests are compared with at least one positive (e.g., AZT-treated) control done at the same time under identical conditions.
(§2) * Weislow. O. W., Kiser, R., Fine, D., Bader, J., Shoemaker, R. H., Boyd, M. R.: New soluble-formazan assay for HIV-1 cytopathic effects: application to high-flux screening of synthetic and natural products for AIDS-antiviral activity. J. Natl. Cancer Inst. 81:577-586, 1989.
(§3) 1. The Candidate agent is dissolved in dimethyl sulfoxide (unless otherwise instructed) then diluted 1:100 in cell culture medium before preparing serial half-log10 dilutions. T4 lymphocytes (CEM cell line) are added and after a brief interval HIV-1 added, resulting in a 1:200 final dilution of the compound. Uninfected cells with the compound serve as a toxicity control, and infected and uninfected cells without compound serve as basic controls.
(§4) 2. Cultures are incubated at 37° in a 5% carbon dioxide atmosphere for 6 days.
(§5) 3. The tetrazolium salt, XTT, is added to all wells, and cultures are incubated to allow formazan color development by viable cells.
(§6) 4. Individual wells are analyzed spectrophotometrically to quantitate formazan production, and in addition are viewed microscopically for detection of viable cells and confirmation of protective activity.
(§7) 5. Drug-treated virus-infected cells are compared with drug-treated noninfected cells and with other appropriate controls (untreated infected and untreated noninfected: cells, drug-containing wells without cells, etc.) on the same plate.
(§8) 6. Data are reviewed in comparison with other tests done at the same time and a determination about activity is made.

A short description of data set [2]: XTT toxicity control, uninfected culture, CEM-V. The data set is classed as cell-based. To be noted: human, cem-v cells, read-out: Uninfected culture response. Here is the method:
as §1, §2, §3, §4, §5, §6, §7, §8
A general note: Tetrazolium dyes change colour on reduction, which living cells bring about.

Values joined by “and” are separate entries in the source; they are usually repeats but may differ in a detail not shown here. Equal entries are not always repeated.

As for `O=[N+]([O-])c1ccccc1S(=O)(=O)c1ccccc1` [Compound 1, 1-Nitro-2-(phenylsulfonyl)benzene], the Uninfected culture response in data set [1] (1.79 × 10^-7 Molar, 0.179 µM) is 106.5%; in data set [1] (1.89 × 10^-4 Molar, 189 µM), 89.8%; in data set [1] (1.89 × 10^-5 Molar, 18.9 µM) it was 100.7%; in data set [1] (1.89 × 10^-6 Molar, 1.89 µM), 104.6%; in data set [1] (1.90 × 10^-7 Molar, 0.19 µM), 105.1%; in data set [1] (5.67 × 10^-7 Molar, 0.567 µM) it was 112.5% and 77.9%. The Uninfected culture response is 120.4% and 99.0% in data set [1] (5.68 × 10^-8 Molar, 0.0568 µM); 99.2% in data set [1] (5.98 × 10^-5 Molar, 59.8 µM); 111.3% in data set [1] (5.99 × 10^-6 Molar, 5.99 µM); 98.3% in data set [1] (6.00 × 10^-7 Molar, 0.6 µM); 101.6% in data set [1] (6.01 × 10^-8 Molar, 0.0601 µM). Besides, in data set [2] (1.79 × 10^-7 Molar), the viability at 0.179 µM was 123%. Also, in data set [2] (1.89 × 10^-4 Molar), the viability at 189 µM came out at 86.7%. Also, in data set [2] (1.89 × 10^-5 Molar), the viability at 18.9 µM was 99.9%. Moreover, in data set [2] (1.89 × 10^-6 Molar), the viability at 1.89 µM worked out at 97.9%. Besides, the viability at 0.19 µM in data set [2] (1.90 × 10^-7 Molar) was 96.9%. The viability at 59.8 µM in data set [2] (5.98 × 10^-5 Molar) is 105%. For the same compound, the viability at 5.99 µM in data set [2] (5.99 × 10^-6 Molar) was 111%. Also, the viability at 0.6 µM in data set [2] (6.00 × 10^-7 Molar) is 90.4%. The viability at 0.0601 µM in data set [2] (6.01 × 10^-8 Molar) was determined as 105%.
